Measurements taken from the NIST ThermoML archive (doi:10.1016/j.fluid.2017.03.012).
Numbers after ± are expanded uncertainties.

Assays:
[1] = for Normal melting temperature: DTA; for Triple point temperature: Crystal 2, DSC
[2] = Molar enthalpy of transition or fusion; settings: DSC

Row | Normal melting temperature ([1]; Crystal) [°C] | Molar enthalpy of transition or fusion ([2]; Crystal) [kcal/mol] | Normal melting temperature ([1]; Crystal 1) [°C] | Triple point temperature [1] [K] | Molar enthalpy of transition or fusion ([2]; Crystal 1) [kcal/mol] | Molar enthalpy of transition or fusion ([2]; Crystal 2) [kcal/mol] | SMILES
1 | 63.8 ± 0.53 | 17 ± 2.08 | – | – | – | – | CCCCCCCCCCCCCCCCCCCCO [1-eicosanol]
2 | – | – | 56.2 ± 0.53 | 319.35 ± 0.81 | 12.4 ± 1.51 | 6.54 ± 0.789 | CCCCCCCCCCCCCCCCCCO [1-octadecanol]
3 | 35.03 ± 0.53 | 17.3 ± 2.1 | – | – | – | – | CCCCCCCCCCCCCCCCCCCC [eicosane]
4 | – | – | 48.06 ± 0.53 | 319.35 ± 0.81 | 14.6 ± 1.77 | 8.08 ± 0.98 | CCCCCCCCCCCCCCCCCCCCCCCC [tetracosane]

Row | SMILES | Normal melting temperature ([1]; Crystal) [°C] | Molar enthalpy of transition or fusion ([2]; Crystal) [kcal/mol] | Normal melting temperature ([1]; Crystal 1) [°C] | Triple point temperature [1] [K] | Molar enthalpy of transition or fusion ([2]; Crystal 1) [kcal/mol] | Molar enthalpy of transition or fusion ([2]; Crystal 2) [kcal/mol]
5 | c1ccc(-c2ccccc2)cc1 [biphenyl] | 68.0 ± 0.53 | 4.66 ± 0.574 | – | – | – | –
